This experiment relates to M. tuberculosis H37Rv. In kind it is cell-based, Mycobacterium tuberculosis. As to conditions: for frequency of spontaneous resistance: M. tuberculosis H37Rv, 10× the MIC.

For `CCc1cc(C(N)=S)ccn1` [ethionamide, reference compound], the “cross-resistance of mutants resistant to 44 and 52” value is “not to be cross-resistant”.
For the compound `O=C(Nc1nc(-c2ccccn2)cs1)c1cccc(Br)c1` [Compound 52], the “resistance range of mutants above the MIC level of the parental strain” value is 2–8 fold and the “frequency of spontaneous resistance” value is given as ~ 10^−5.
The corresponding values for `COc1ccc(C(=O)Nc2nc(-c3ccccn3)cs2)cc1` [Compound 44] are 2–8 fold and ~ 10^−5.

Source of the values: publication PMC3816974 (Bioorganic & medicinal chemistry, 2013).
